We go through two compounds from ChEMBL document CHEMBL3774317, “Design and synthesis of novel tamoxifen analogues that avoid CYP2D6 metabolism” (Eur J Med Chem, 2016).

Each structure is given as a SMILES string.

Type in all cases: functional
A short description of test [1]: Cytotoxicity against human UO31 cells assessed as cell growth at 50 uM after 48 hrs by SRB assay. The following applies: UO-31, 48 h, read-out: Activity.
Test [2] can be described thus: Cytotoxicity against human PC3 cells assessed as cell growth at 0.5 uM after 48 hrs by SRB assay. To be noted: PC-3, 48 h, read-out: Activity.
The next test has as its system M14. The experiment in a line: Cytotoxicity against human M14 cells assessed as cell growth at 5 uM after 48 hrs by SRB assay. The following applies: M14, 48 h, read-out: Activity.
In a further test the test system is NCI-H23. In words: Cytotoxicity against human NCI-H23 cells assessed as cell growth at 50 uM after 48 hrs by SRB assay. The following applies: NCI-H23, 48 h, read-out: Activity.
Test [3] can be described thus: Cytotoxicity against human Hs 578T cells assessed as cell growth at 0.5 uM after 48 hrs by SRB assay. To be noted: read-out: Activity.
Test [4] relates to NCI-H522. In words: Cytotoxicity against human NCI-H522 cells assessed as cell growth at 5 nM after 48 hrs by SRB assay. The following applies: NCI-H522, 48 h, read-out: Activity.
In test [5] the test system is NCI-H522. The experiment in a line: Cytotoxicity against human NCI-H522 cells assessed as cell growth at 5 uM after 48 hrs by SRB assay. The following applies: NCI-H522, 48 h, read-out: Activity.
Test [6] is described as follows: Cytotoxicity against human UO31 cells assessed as cell growth at 50 nM after 48 hrs by SRB assay. To be noted: UO-31, 48 h, read-out: Activity.
Test [7] is described as follows: Cytotoxicity against human BT549 cells assessed as cell growth at 50 uM after 48 hrs by SRB assay. The following applies: BT-549, 48 h, read-out: Activity.
Test [8] has as its system 786-0. The experiment in a line: Cytotoxicity against human 786-0 cells assessed as cell growth at 5 uM after 48 hrs by SRB assay. The following applies: 786-0, 48 h, read-out: Activity.
A further test has as its system Malme-3M. The experiment in a line: Cytotoxicity against human MALME-3M cells assessed as cell growth at 5 uM after 48 hrs by SRB assay. To be noted: read-out: Activity.
Test [9] relates to NCI-H522. The experiment in a line: Cytotoxicity against human NCI-H522 cells assessed as cell growth at 0.5 uM after 48 hrs by SRB assay. To be noted: NCI-H522, 48 h, read-out: Activity.
The nature of test [10]: Cytotoxicity against human HCT15 cells assessed as cell growth at 0.5 uM after 48 hrs by SRB assay. To be noted: HCT-15, 48 h, read-out: Activity.
Test [11] can be described thus: Cytotoxicity against human NCI-ADR-RES cells assessed as cell growth at 0.5 uM after 48 hrs by SRB assay. The following applies: read-out: Activity.
A further test deals with SR. The experiment in a line: Cytotoxicity against human SR cells assessed as cell growth at 50 uM after 48 hrs by SRB assay. The following applies: read-out: Activity.
The next test relates to MCF7. The experiment in a line: Cytotoxicity against human MCF7 cells assessed as cell growth at 5 nM after 48 hrs by SRB assay. To be noted: MCF7, 48 h, read-out: Activity.
Another test has as its system HT-29. In words: Cytotoxicity against human HT-29 cells assessed as cell growth at 50 nM after 48 hrs by SRB assay. To be noted: HT-29, 48 h, read-out: Activity.
The nature of test [12]: Cytotoxicity against human UO31 cells assessed as cell growth at 5 nM after 48 hrs by SRB assay. To be noted: UO-31, 48 h, read-out: Activity.
In another test the test system is K562. In words: Cytotoxicity against human K562 cells assessed as cell growth at 0.5 uM after 48 hrs by SRB assay. To be noted: K562, 48 h, read-out: Activity.
Another test concerns KM12. The experiment in a line: Cytotoxicity against human KM12 cells assessed as cell growth at 50 nM after 48 hrs by SRB assay. To be noted: KM12, 48 h, read-out: Activity.
The next test has as its system CCRF-CEM. The experiment in a line: Cytotoxicity against human CCRF-CEM cells assessed as cell growth at 5 uM after 48 hrs by SRB assay. To be noted: read-out: Activity.
Test [13] in a line: Cytotoxicity against human RXF393 cells assessed as cell growth at 10^-6 M after 48 hrs by SRB assay. The following applies: RXF 393, 48 h, read-out: Activity.
For another test, the system named is SK-MEL-5. In words: Cytotoxicity against human SK-MEL-5 cells assessed as cell growth at 10^-7 M after 48 hrs by SRB assay. To be noted: SK-MEL-5, 48 h, read-out: Activity.
Test [14] concerns 786-0. The experiment in a line: Cytotoxicity against human 786-0 cells assessed as cell growth at 10^-8 M after 48 hrs by SRB assay. To be noted: 786-0, 48 h, read-out: Activity.
The nature of test [15]: Cytotoxicity against human OVCAR5 cells assessed as cell growth at 10^-4 M after 48 hrs by SRB assay. The following applies: OVCAR-5, 48 h, read-out: Activity.
The subject of a further test is U-251. In words: Cytotoxicity against human U251 cells assessed as cell growth at 10^-6 M after 48 hrs by SRB assay. To be noted: U-251, 48 h, read-out: Activity.
Test [16] can be described thus: Cytotoxicity against human TK10 cells assessed as cell growth at 10^-7 M after 48 hrs by SRB assay. To be noted: TK-10, 48 h, read-out: Activity.
Test [17] relates to NCI-H226. In words: Cytotoxicity against human NCI-H226 cells assessed as cell growth at 10^-8 M after 48 hrs by SRB assay. To be noted: NCI-H226, 48 h, read-out: Activity.
Test [18] can be described thus: Cytotoxicity against human BT549 cells assessed as cell growth at 10^-6 M after 48 hrs by SRB assay. The following applies: BT-549, 48 h, read-out: Activity.
Test [19] in a line: Cytotoxicity against human HOP62 cells assessed as cell growth at 10^-7 M after 48 hrs by SRB assay. The following applies: HOP-62, 48 h, read-out: Activity.
Test [20] has as its system NCI-H522. The experiment in a line: Cytotoxicity against human NCI-H522 cells assessed as cell growth at 10^-8 M after 48 hrs by SRB assay. The following applies: NCI-H522, 48 h, read-out: Activity.
The nature of test [21]: Cytotoxicity against human HCT116 cells assessed as cell growth at 10^-7 M after 48 hrs by SRB assay. To be noted: HCT-116, 48 h, read-out: Activity.
Another test relates to MDA-MB-435. The experiment in a line: Cytotoxicity against human MDA-MB-435 cells assessed as cell growth at 10^-8 M after 48 hrs by SRB assay. The following applies: MDA-MB-435, 48 h, read-out: Activity.
In test [22] the test system is NCI-H226. In words: Cytotoxicity against human NCI-H226 cells assessed as cell growth at 10^-4 M after 48 hrs by SRB assay. To be noted: NCI-H226, 48 h, read-out: Activity.
Test [23] is described as follows: Cytotoxicity against human OVCAR8 cells assessed as cell growth at 10^-5 M after 48 hrs by SRB assay. The following applies: OVCAR-8, 48 h, read-out: Activity.
Test [24] in a line: Cytotoxicity against human HCT15 cells assessed as cell growth at 10^-8 M after 48 hrs by SRB assay. The following applies: HCT-15, 48 h, read-out: Activity.
For another test, the system named is ACHN. In words: Cytotoxicity against human ACHN cells assessed as cell growth at 10^-5 M after 48 hrs by SRB assay. To be noted: read-out: Activity.
The nature of test [25]: Cytotoxicity against human HOP62 cells assessed as cell growth at 10^-6 M after 48 hrs by SRB assay. The following applies: HOP-62, 48 h, read-out: Activity.
For a further test, the system named is MDA-MB-468. In words: Cytotoxicity against human MDA-MB-468 cells assessed as cell growth at 10^-7 M after 48 hrs by SRB assay. To be noted: MDA-MB-468, 48 h, read-out: Activity.
Test [26] can be described thus: Cytotoxicity against human UACC62 cells assessed as cell growth at 10^-5 M after 48 hrs by SRB assay. The following applies: UACC-62, 48 h, read-out: Activity.
Test [27] in a line: Cytotoxicity against human SF295 cells assessed as cell growth at 10^-6 M after 48 hrs by SRB assay. The following applies: SF-295, 48 h, read-out: Activity.
A short description of test [28]: Cytotoxicity against human SF295 cells assessed as cell growth at 10^-8 M after 48 hrs by SRB assay. To be noted: SF-295, 48 h, read-out: Activity.

Take `CCCCCCCCCC(=O)Oc1ccc(/C(=C(/C)c2ccccc2)c2ccc(OCCN3CCCC3)cc2)cc1`: the growth at 50 µM in test [1] was -85%; in the test with NCI-H23 it was -78%; in [7], -76%; in the test with SR it was -66%. The growth at 0.5 µM in test [2] is 86%; in test [3] it was 75%; with NCI-H522 [9], 98%; in test [10] it was 58%; in [11], 73%; in the test with K562 it was 34%. Besides, the growth at 5 µM in the test on M14 came out at 87%; in the test on NCI-H522 [5], 96%; in the test with 786-0 [8] it was 93%; in the test with Malme-3M, 81%; in the test with CCRF-CEM, 88%. Also, the growth at 0.005 µM in the test with NCI-H522 [4] amounted to 101%; with MCF7, 45%; in test [12], 95%. Moreover, the growth at 0.05 µM came to 89% in [6], 98% with HT-29 and 98% in the test with KM12.

With `C/C(=C(/c1ccc(O)cc1)c1ccc(OCCN2CCCC2)cc1)c1ccccc1`, the growth at 1 µM in test [13] was determined as 87%; in the test with U-251, 95%; in [18] it was 92%; in test [25], 98%; in test [27], 94%. Besides, the growth at 0.1 µM was determined as 102% in the test on SK-MEL-5; 94% in test [16]; 95% in test [19]; 101% in test [21]; 97% with MDA-MB-468. For the same compound, the growth at 0.01 µM with 786-0 [14] amounted to 97%; in the test on NCI-H226 [17], 91%; with NCI-H522 [20], 88%; in the test on MDA-MB-435, 93%; in test [24], 92%; in test [28], 87%. Also, the growth at 100 µM was -85% in test [15] and -62% with NCI-H226 [22]. Besides, the growth at 10 µM is 35% in test [23], 25% in the test with ACHN and -51% in [26].
